Experimental findings from patent publication US10603335B2, “Cancer treatment combination compositions, methods and uses” (Board of Supervisors of Louisiana State University and …, priority 2016, dated 2020) are described below.

Assay [1] concerns cleaved PARP, XIAP and cIAP2 in MiaPaca-2 cells. Put plainly: Western blot of apoptosis markers and inhibitors of apoptosis, MiaPaca-2. Format: cell-based, human. The conditions noted are these: for XIAP and c-IAP2 protein levels: 24 h. On the procedure: (§1) Pancreatic cells were collected after trypsinization and seeded in 12-well plates for 24 h before treatments. Treatments were performed as described in the Figure legends. Following treatment, whole cell lysates were collected in Laemmli buffer and analyzed by Western blot. The following primary antibodies were used: XIAP, c-IAP2, cleaved PARP, Caspase-3 (all from Cell Signaling), actin (Santa Cruz) and LHRHR (Abcam).
(§2) Western blot analysis. Actin, GAPDH and Ponceau staining were used as loading controls. Gemcitabine was diluted in water. Curcumin and LHRH-curcumin were diluted in DMSO. Cells were treated as follows:
(§3) Western blot analysis. Actin, GAPDH and Ponceau staining were used as loading controls. Gemcitabine was diluted in water. Curcumin and LHRH-curcumin were diluted in DMSO. The cells were treated as follows:
(§4) Western blot analysis. Actin was used as loading control. Both gemcitabine and LHRH-curcumin were diluted in water.

Assay [2] relates to cleaved PARP, XIAP and cIAP2 in Panc-1 cells. In words: Western blot of apoptosis markers and inhibitors of apoptosis, Panc-1. In kind it is cell-based. The conditions noted are these: for XIAP and c-IAP2 protein levels: 24 h. Here is the method:
as §1, §2, §3, §4
On the technique in general: Immunoblotting shows a protein as a band on a membrane.

Assay [3] relates to cleaved PARP, XIAP and cIAP2 in AsPC-1 cells. In words: Western blot of apoptosis markers and inhibitors of apoptosis, AsPC-1. In kind it is cell-based. The conditions noted are these: for XIAP and c-IAP2 protein levels: 24 h. On the procedure: as §1, §2
(§5) Western blot analysis. Actin, GAPDH and Ponceau staining were used as loading controls. Gemcitabine was diluted in water. Curcumin and LHRH-curcumin were diluted in DMSO.

Assay [4] has as its system cleaved PARP, XIAP and cIAP2 in BxPC-3 cells. In words: Western blot of apoptosis markers and inhibitors of apoptosis, BxPC-3. In kind it is cell-based. The conditions noted are these: for XIAP and c-IAP2 protein levels: 24 h. Here is the method:
as §1, §2, §5

Assay [5] concerns XIAP, cIAP1 and cIAP2 mRNA in Panc-1 cells. In words: Quantitative PCR of inhibitors of apoptosis, Panc-1. In kind it is cell-based. The conditions noted are these: 50 uM, 24 h post-treatment, relative to DMSO, GAPDH reference. Here is the method:
mRNA levels of XIAP, c-IAP1 and c-IAP2 were determined by quantitative real-time PCR using the SYBR Green Real-Time PCR Master Mix form ThermoFisher. Thermal cycling was carried out using the CFX system from BioRad under the following conditions: 95° C. for 10 min and 40 cycles at 95° C. for 15 s and 55° C. for 60 s. mRNA expression for any given gene is represented as comparative to the DMSO-treated cells. GAPDH was used as the housekeeping gene of reference.
GAPDH was used as a reference. Results presented in FIG. 12A (XIAP relative mRNA levels), FIG. 12B (cIAP1 relative mRNA levels), FIG. 12C (cIAP2 relative mRNA levels).

The test system of another assay is Panc-1 cells spheroids. Put plainly: 3D spheroid growth (IncuCyte ZOOM), Panc-1. Format: cell-based. The conditions noted are these: LHRH 30 μM, LHRH-curcumin 30 μM. On the procedure:
A protocol that enables the growth of identical size single cancer cell spheroids in Matrigel in 96 well plates has been developed.
Panc-1 and Mia-Paca-2 cells were grown in 10% FBS DMEM. Cells were collected after trypsinization and resuspended in phenol-red free DMEM with 10% FBS. Cells were labeled with CellTracker Red (Life Techmologies) for 5 minutes. After labeling cells were washed with PBS and transfer into 96-well Corning 7007 ULA round bottom plates at 1,000 cells/well in 100 μl phenol-red free media with 10% FBS and 5% Matrigel. […] Spheroids were grown at 37° C. and 5% CO2 in IncuCyte ZOOM (Essen Bioscience). Images were acquired every 4 h for a period of 120 h post-treatment and software analysis was design to identify the red object in the well. The data were expressed as fold increase in spheroids size at the end of the treatment using the “average red object area in the well” as determined by the IncuCyte software analysis. Reproducibility was confirmed in three independent experiments. Spheroids grew at a uniform rate (FIG. 1).

The subject of assay [6] is non-target control (NT) Panc-1 spheroides. Put plainly: 3D spheroid growth, non-target control (NT) Panc-1. Format: cell-based. The conditions noted are these: 30 μM.
[7] abbreviates: 50 uM in the presence of gemcitabine (5 uM).
The mark [8] stands for this setting: curcumin, LHRH-curcumin 50 uM and 100 uM alone, gemcitabine alone.
[9] abbreviates: 24 h post-treatment, curcumin, LHRH-curcumin 10-100 uM, gemcitabine 1-20 uM.

For `COc1cc(/C=C/C(=O)CC(=O)/C=C/c2ccc(O)c(OC)c2)ccc1O` [curcumin], the “XIAP and c-IAP2 protein levels” value in assay [1] (setting [7]), in assay [1] (setting [8]), in assay [2] (setting [7]), in assay [2] (setting [8]), in assay [3] (setting [7]) and in assay [3] (setting [8]) was “down-regulated” in each case. Also, the “XIAP and c-IAP2 protein levels” value in assay [4] (setting [7]) and in assay [4] (setting [8]) was “down-regulated” each time. Besides, the “apoptosis marker cleaved PARP” value in assay [1] (setting [9]), in assay [2] (setting [9]), in assay [3] (setting [9]) and in assay [4] (setting [9]) was “initiate apoptosis as illustrated by the presence of cleaved PARP” each time. Moreover, in assay [5], the “mRNA levels of XIAP, cIAP1 and c-IAP2” value is listed as “down-regulated”.
Regarding “luteinizing hormone releasing hormone (EHWSYGLRPG) [LHRH, Gonadotropin-releasing hormone (GnRH, also called luteinizing hormone releasing hormone or LHRH), reference compound]”, the spheroids growth result in the assay with Panc-1 cells spheroids is listed as “inhibitory effect on spheroids growth”; in assay [6], “inhibitory effect on NT Panc-1 spheroids growth”.
